Experimental data published in ChEMBL document CHEMBL5674860, “Optimized Dual-Glo Assay to identify co-culture-induced drug vulnerabilities in 3D CRC models” (2024).

What was measured:
Format in all cases: functional, Homo sapiens
Design in all cases: dose or concentration left out as unconfirmed
Colon cancer organoid [1] = assay: Optimized Dual-Glo assay to identify co-culture induced drug vulnerabilities using donated chemical probes and chemogenomics kinase set in O14 CRC organoid and F14 CAF mono and co-culture. […] Cell viability is reported both mono and co-culture models.
Colon cancer organoid [2] = assay: Optimized Dual-Glo assay to identify co-culture induced drug vulnerabilities using donated chemical probes and chemogenomics kinase set in O20 CRC organoid and F20 CAF mono and co-culture. […] Cell viability is reported both mono and co-culture models.
Colon cancer organoid [3] = assay: Optimized Dual-Glo assay to identify co-culture induced drug vulnerabilities using donated chemical probes and chemogenomics kinase set in O06 CRC organoid and F06 CAF mono and co-culture. […] Cell viability is reported both mono and co-culture models.
[4] = Culture type Co-Culture, Transduced with Lucferase2-P2A-EGFP lentivirus
[5] = Culture type Co-Culture, Transduced with Renilla-dsRed lentivirus
[6] = Culture type Mono-Culture, Transduced with Lucferase2-P2A-EGFP lentivirus
[7] = Culture type Mono-Culture, Transduced with Renilla-dsRed lentivirus

| Structure (SMILES) | Cell Viability (Colon cancer organoid [1]; [4]) [%] | Cell Viability (Colon cancer organoid [1]; [5]) [%] | Cell Viability (Colon cancer organoid [1]; [6]) [%] | Cell Viability (Colon cancer organoid [1]; [7]) [%] | Cell Viability (Colon cancer organoid [2]; [4]) [%] | Cell Viability (Colon cancer organoid [2]; [5]) [%] | Cell Viability (Colon cancer organoid [2]; [6]) [%] | Cell Viability (Colon cancer organoid [2]; [7]) [%] | Cell Viability (Colon cancer organoid [3]; [4]) [%] | Cell Viability (Colon cancer organoid [3]; [5]) [%] | Cell Viability (Colon cancer organoid [3]; [6]) [%] | Cell Viability (Colon cancer organoid [3]; [7]) [%] |
| --- | --- | --- | --- | --- | --- | --- | --- | --- | --- | --- | --- | --- |
| COc1cc(C(=O)O)ncc1C#Cc1ccccc1NS(=O)(=O)c1cccc2c(N(C)C)ccnc12 [MSC-0516] | 94.2911 | 93.5429 | 114.942 | 88.0348 | 89.6649 | 109.372 | 112.972 | 85.9962 | 46.2412 | 64.6541 | 39.7973 | 95.1501 |
| FC(F)(F)c1ccc2c(c1)nc(-c1cccnc1)n2C1CC1 [MSD-CYP11B2-Negative-control] | 79.1334 | 88.6801 | 68.2082 | 99.4361 | 98.8357 | 114.7 | 79.6989 | 74.5522 | 103.115 | 83.1787 | 99.8949 | 100.759 |
| CC(C)(O)c1cncc(-c2nc3ccc(F)cc3n2C2CC2)c1 [MSD-CYP11B2] | 60.604 | 97.9336 | 96.2618 | 98.7246 | 80.0796 | 128.543 | 82.8695 | 83.5223 | 83.611 | 134.058 | 92.3684 | 91.4752 |
| N#CC1(c2ccccn2)CCN(Cc2cc(C(=O)N3CCCC3)c(=O)n3ccccc23)CC1 [MSD-M1PAM-NC] | 77.5991 | 103.607 | 89.6138 | 86.9553 | 102.191 | 109.338 | 89.1265 | 100.403 | 85.4848 | 72.6928 | 94.7679 | 111.31 |
| N#CC1(c2ccccn2)CCN(Cc2cc(C(=O)O)c(=O)n3ccccc23)CC1 [MSD-M1PAM] | 126.16 | 122.221 | 72.0486 | 98.779 | 53.1969 | 117.537 | 81.9362 | 89.7444 | 12.088 | 188.309 | 35.5128 | 99.638 |
| CC(=O)Nc1c(C(C)=O)c(=O)n(C)c2nc(-c3ccc(Cl)cc3Cl)c(-c3ccc(Cl)cc3)cc12 [NAPHTHYRIDINONE] | 70.6421 | 119.606 | 87.1663 | 99.5027 | 105.882 | 98.6055 | 84.0394 | 82.777 | 144.905 | 170.157 | 100.862 | 101.001 |
